Experimental data as given in PubChem BioAssay (NCI).
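Where inhibition never reached the appropriate level, the endpoint shown equals the highest concentration tested. Otherwise, values were interpolated linearly from a five-concentration, 48-hour dose response in 96-well plates. GI50: concentration for 50% inhibition of growth. TGI: total growth inhibition.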

What was measured:
Test in all cases: NCI tumour cell line growth inhibition, 48 h
[1] = system: SF-295 CNS
[2] = system: DU-145 prostate
[3] = system: UACC-257 melanoma
[4] = system: RPMI-8226 leukemia
[5] = system: EKVX NSCLC
[6] = system: SN12C renal
[7] = system: SK-OV-3 ovarian
[8] = system: NCI-H226 lung
[9] = system: PC-3 prostate
[10] = system: OVCAR-5 ovarian
[11] = system: OVCAR-4 ovarian
[12] = system: K-562 leukemia
[13] = system: NCI/ADR-RES ovarian
[14] = system: MDA-MB-231 breast
[15] = system: SNB-19 CNS
[16] = system: MOLT-4 leukemia
[17] = system: UO-31 renal
[18] = system: SR leukemia
[19] = system: OVCAR-8 ovarian
[20] = system: HCT-15 colon
[21] = system: MCF7 breast
[22] = system: M14 melanoma
[23] = system: NCI-H522 lung
[24] = system: UACC-62 melanoma
[25] = system: SF-539 CNS
[26] = system: NCI-H460 lung
[27] = system: SF-268 CNS
[28] = system: SW-620 colon
[29] = system: SK-MEL-2 melanoma
[30] = system: RXF 393 renal
[31] = system: U251 CNS
[32] = system: BT-549 breast
[33] = system: SNB-75 CNS
[34] = system: MDA-MB-435
[35] = system: HOP-62 NSCLC
[36] = system: A549 NSCLC
[37] = system: T-47D breast
[38] = system: NCI-H23 lung
[39] = system: COLO 205 colon
[40] = system: 786-0 renal
[41] = system: LOX IMVI melanoma
[42] = system: SK-MEL-28 melanoma
[43] = system: ACHN renal
[44] = system: A498 renal
[45] = system: IGROV1 ovarian
[46] = system: HL-60(TB) leukemia
[47] = system: HS 578T breast
[48] = system: CAKI-1 renal
[49] = system: HCT-116 colon
[50] = system: SK-MEL-5 melanoma
[51] = system: KM12 colon
[52] = system: HT29 colon
[53] = system: CCRF-CEM leukemia
[54] = system: OVCAR-3 ovarian
[55] = system: MALME-3M melanoma
[56] = system: HCC-2998 colon

CC(=O)OC[C@]12CC[C@H]3[C@@H](C[C@H]4O[C@]45CC=CC(=O)[C@]35C)[C@]1(O)CC[C@@]2(O)[C@@](C)(O)C1CC(C)=C(C)C(=O)O1 (stereo partly specified)
TGI [1]: > 32.5 µM | TGI [2]: > 32.8 µM | TGI [3]: > 32.8 µM | GI50 [4]: > 100 µM | TGI [4]: > 100 µM | TGI [5]: > 30.4 µM | TGI [6]: > 32 µM | TGI [7]: > 23.7 µM | TGI [8]: > 20 µM | TGI [9]: > 26.1 µM | TGI [10]: > 20.1 µM | TGI [11]: > 34.9 µM | TGI [12]: > 100 µM | GI50 [13]: > 23.6 µM | TGI [13]: > 100 µM | TGI [14]: > 23.6 µM | TGI [15]: > 35.4 µM | TGI [16]: > 36.2 µM | TGI [17]: > 25 µM | TGI [18]: > 38 µM | TGI [19]: > 32.1 µM | TGI [20]: > 33.6 µM | TGI [21]: > 25.3 µM

Cc1cc(C)cc(Nc2nnc3n2S(=O)(=O)c2cc(C#N)c(Cl)cc2S3)c1
TGI [1]: 9.2 µM | TGI [22]: 28.2 µM | TGI [23]: 4.59 µM | TGI [24]: 15.4 µM | TGI [2]: 12.5 µM | TGI [3]: 3.32 µM | TGI [25]: 3.97 µM | TGI [26]: 12.2 µM | TGI [27]: 5.48 µM | TGI [28]: 4.86 µM | TGI [29]: 19.5 µM | TGI [5]: 21.2 µM | TGI [30]: 3.26 µM | TGI [6]: 7.15 µM | TGI [31]: 4.29 µM | TGI [7]: 21.9 µM | TGI [32]: 5.98 µM | TGI [8]: 26.1 µM | TGI [33]: 7.56 µM | TGI [34]: 10.4 µM | TGI [35]: 9.25 µM | TGI [36]: 32.9 µM | TGI [37]: 31.6 µM | TGI [38]: 4.35 µM | TGI [39]: 34.6 µM | TGI [40]: > 100 µM | TGI [41]: 9.03 µM | TGI [10]: 9.55 µM | TGI [42]: 14.2 µM | TGI [11]: 22.1 µM | TGI [12]: > 100 µM | TGI [43]: 10.7 µM | TGI [13]: 6.51 µM | TGI [44]: 31.4 µM | TGI [45]: 1.68 µM | TGI [46]: 19.4 µM | TGI [47]: 15.8 µM | TGI [14]: 12.8 µM | TGI [15]: 21.6 µM | TGI [48]: 12.6 µM | TGI [16]: 52 µM | TGI [17]: 17 µM | TGI [49]: 6.37 µM | TGI [50]: 20.7 µM | TGI [18]: 3.42 µM | TGI [51]: 4.46 µM | TGI [52]: 4.98 µM | TGI [20]: 8.16 µM | TGI [53]: 4.32 µM | TGI [21]: 6.56 µM | TGI [54]: 3.34 µM | TGI [55]: 2.92 µM

COC(=O)c1ccc2c(c1)n(Cc1ccc3ccccc3c1)c[n+]2Cc1ccc2ccccc2c1
GI50 [1]: 1.86 µM | TGI [1]: 5.56 µM | GI50 [2]: 1.77 µM | TGI [2]: 3.52 µM | GI50 [27]: 1.5 µM | TGI [27]: 3.02 µM | GI50 [5]: 3.01 µM | TGI [5]: 20.4 µM | GI50 [7]: 2.82 µM | TGI [7]: 13.4 µM | GI50 [8]: 1.96 µM | TGI [8]: 4.44 µM | GI50 [34]: 1.33 µM | TGI [34]: 2.75 µM | GI50 [35]: 1.8 µM | TGI [35]: 4.28 µM | GI50 [36]: 11.3 µM | TGI [36]: 36.8 µM | GI50 [10]: 2.12 µM | TGI [10]: 13.7 µM | GI50 [43]: 10.2 µM | TGI [43]: 29.8 µM | GI50 [13]: 24 µM | TGI [13]: > 100 µM | GI50 [44]: 2.23 µM | TGI [44]: 6.49 µM | GI50 [47]: 1.76 µM | TGI [47]: 4.65 µM | GI50 [17]: 13 µM | TGI [17]: 63.9 µM | GI50 [50]: 1.46 µM | TGI [50]: 2.78 µM | GI50 [51]: 1.37 µM | TGI [51]: 2.83 µM | GI50 [20]: 4.48 µM | TGI [20]: 26.8 µM | GI50 [53]: 1.79 µM | TGI [53]: 4.46 µM | GI50 [54]: 1.37 µM | TGI [54]: 2.78 µM

COc1cc(-c2c(C#N)c(N)n3c(nc4ccccc43)c2C#N)cc(Br)c1OC
GI50 [1]: > 100 µM | TGI [1]: > 100 µM | GI50 [22]: > 100 µM | TGI [22]: > 100 µM | GI50 [23]: 79.7 µM | TGI [23]: > 100 µM | GI50 [24]: 28.3 µM | TGI [24]: > 100 µM | GI50 [3]: > 100 µM | TGI [3]: > 100 µM | GI50 [25]: > 100 µM | TGI [25]: > 100 µM | GI50 [27]: 77.5 µM | TGI [27]: > 100 µM | GI50 [4]: 6.83 µM | TGI [4]: > 100 µM | GI50 [29]: 47.5 µM | TGI [29]: > 100 µM | GI50 [30]: 4.37 µM | TGI [30]: > 100 µM | GI50 [31]: 4.47 µM | TGI [31]: > 100 µM | GI50 [7]: > 100 µM | TGI [7]: > 100 µM | GI50 [32]: > 100 µM | TGI [32]: > 100 µM | GI50 [8]: > 100 µM | TGI [8]: > 100 µM | GI50 [33]: 2.18 µM | TGI [33]: 9.98 µM | GI50 [34]: > 100 µM | TGI [34]: > 100 µM | GI50 [35]: > 100 µM | TGI [35]: > 100 µM | GI50 [9]: 4.4 µM | TGI [9]: > 100 µM | GI50 [39]: > 100 µM | TGI [39]: > 100 µM | GI50 [40]: 6.24 µM | TGI [40]: > 100 µM | GI50 [41]: > 100 µM | TGI [41]: > 100 µM | GI50 [10]: > 100 µM | TGI [10]: > 100 µM | GI50 [42]: > 100 µM | TGI [42]: > 100 µM | GI50 [56]: > 100 µM | TGI [56]: > 100 µM | GI50 [12]: > 100 µM | TGI [12]: > 100 µM | GI50 [43]: > 100 µM | TGI [43]: > 100 µM | GI50 [13]: > 100 µM | TGI [13]: > 100 µM | GI50 [44]: > 100 µM | TGI [44]: > 100 µM | GI50 [45]: 97.5 µM | TGI [45]: > 100 µM | GI50 [46]: > 100 µM | TGI [46]: > 100 µM | GI50 [47]: 2.71 µM | TGI [47]: > 100 µM | GI50 [14]: 2.46 µM | TGI [14]: > 100 µM | GI50 [15]: > 100 µM | TGI [15]: > 100 µM | GI50 [16]: > 100 µM | TGI [16]: > 100 µM | GI50 [17]: 4.13 µM | TGI [17]: > 100 µM | GI50 [49]: 4.77 µM | TGI [49]: > 100 µM | GI50 [50]: 3.3 µM | TGI [50]: > 100 µM | GI50 [20]: > 100 µM | TGI [20]: > 100 µM
